The values that follow come from article PMC3632306 (Journal of medicinal chemistry, 2013).

Series [1] concerns U87-MG glioblastoma cells. The series can be described thus: Invasive migration in U87-MG cells. The class given is cell-based, human. The note with it: for Invasive migration in U87-MG cells: 100 nM to 10 μM, 48 hours.
In series [2] the target is T1, PLD1 (Homo sapiens, UniProt Q13393).
T1 sequence (Q13393 1-1074): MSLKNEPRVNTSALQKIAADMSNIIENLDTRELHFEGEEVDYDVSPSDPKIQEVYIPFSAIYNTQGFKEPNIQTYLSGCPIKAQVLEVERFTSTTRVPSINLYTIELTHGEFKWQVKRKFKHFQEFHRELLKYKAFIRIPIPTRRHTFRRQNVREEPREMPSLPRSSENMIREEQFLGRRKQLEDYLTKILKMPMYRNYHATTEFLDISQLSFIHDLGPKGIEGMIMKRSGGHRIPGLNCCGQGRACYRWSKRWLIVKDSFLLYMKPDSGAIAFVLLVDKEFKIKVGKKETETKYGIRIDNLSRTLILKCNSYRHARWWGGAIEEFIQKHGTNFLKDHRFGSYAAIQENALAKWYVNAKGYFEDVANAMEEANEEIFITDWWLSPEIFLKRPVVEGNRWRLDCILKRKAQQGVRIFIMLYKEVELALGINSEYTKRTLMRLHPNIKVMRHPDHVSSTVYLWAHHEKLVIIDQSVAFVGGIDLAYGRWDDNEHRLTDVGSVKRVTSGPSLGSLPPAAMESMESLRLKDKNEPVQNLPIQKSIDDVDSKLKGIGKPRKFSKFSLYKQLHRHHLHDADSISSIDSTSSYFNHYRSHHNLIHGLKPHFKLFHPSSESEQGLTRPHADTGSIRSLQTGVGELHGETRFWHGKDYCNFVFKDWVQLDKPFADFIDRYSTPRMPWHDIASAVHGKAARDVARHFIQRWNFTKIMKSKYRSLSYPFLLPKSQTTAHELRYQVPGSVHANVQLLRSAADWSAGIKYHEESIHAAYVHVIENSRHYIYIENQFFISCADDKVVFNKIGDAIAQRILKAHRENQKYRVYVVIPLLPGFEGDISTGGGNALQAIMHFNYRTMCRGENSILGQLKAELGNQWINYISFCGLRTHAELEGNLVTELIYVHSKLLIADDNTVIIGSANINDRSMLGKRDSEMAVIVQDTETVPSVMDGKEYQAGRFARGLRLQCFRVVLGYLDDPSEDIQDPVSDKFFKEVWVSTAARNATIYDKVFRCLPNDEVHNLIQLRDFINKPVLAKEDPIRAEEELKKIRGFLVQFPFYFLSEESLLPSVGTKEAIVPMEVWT

For series [3], the system named is U87-MG cells. The series can be described thus: U87-MG cell viability. Type of series: cell-based, human. Particulars: concentrations up to 10 μM, relative to DMSO, 10% FBS.
Test in series [4]: not given
This is another data set of the same source.

For series [5], the target named is PLD2 (Homo sapiens, UniProt O14939). The note with it: purified PLD proteins; data comparable to cell-based assay.
Chain of PLD2 (O14939 whole entry, species assumed): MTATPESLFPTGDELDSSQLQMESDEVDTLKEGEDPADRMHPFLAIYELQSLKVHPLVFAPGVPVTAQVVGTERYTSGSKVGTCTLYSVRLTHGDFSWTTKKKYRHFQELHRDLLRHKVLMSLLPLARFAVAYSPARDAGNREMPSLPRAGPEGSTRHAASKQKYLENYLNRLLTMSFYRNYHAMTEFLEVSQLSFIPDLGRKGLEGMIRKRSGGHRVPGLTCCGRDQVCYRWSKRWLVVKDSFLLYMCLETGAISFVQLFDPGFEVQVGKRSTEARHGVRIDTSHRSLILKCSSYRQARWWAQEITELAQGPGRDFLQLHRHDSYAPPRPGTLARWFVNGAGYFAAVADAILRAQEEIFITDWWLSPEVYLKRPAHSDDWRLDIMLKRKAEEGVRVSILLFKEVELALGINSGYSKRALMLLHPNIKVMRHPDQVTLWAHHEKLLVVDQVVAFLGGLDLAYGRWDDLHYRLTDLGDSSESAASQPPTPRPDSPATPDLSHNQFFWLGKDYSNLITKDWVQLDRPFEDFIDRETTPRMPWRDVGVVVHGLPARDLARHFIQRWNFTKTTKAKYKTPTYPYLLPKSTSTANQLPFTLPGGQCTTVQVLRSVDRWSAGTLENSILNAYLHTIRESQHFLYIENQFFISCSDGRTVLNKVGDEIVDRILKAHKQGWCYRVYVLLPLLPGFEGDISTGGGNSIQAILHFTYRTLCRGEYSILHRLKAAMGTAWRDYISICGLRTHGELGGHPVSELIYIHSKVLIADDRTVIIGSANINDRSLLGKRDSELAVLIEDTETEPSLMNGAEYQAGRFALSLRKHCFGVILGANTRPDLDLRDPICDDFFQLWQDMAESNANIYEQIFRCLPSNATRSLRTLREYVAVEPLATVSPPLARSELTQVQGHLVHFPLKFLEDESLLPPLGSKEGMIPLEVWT
The nature of series [6]: in vivo. The note with it: mouse, ip, 10 mg/kg.

Entries after “also recorded” stand apart in the source; their conditions may differ.

`O=C(NCCN1CCC2(CC1)C(=O)NCN2c1cccc(F)c1)c1ccc(F)c(F)c1` [ML298, 3,4-Difluoro-N-(2-(1-(3-fluorophenyl)-4-oxo-1,3,8-triazaspiro[4.5]decan-8yl)ethyl)benzamide]: the “Human CLHEP” value was found to be 1.07 L/h/kg. Moreover, the “Invasive migration in U87-MG cells” value in series [1] was “dose-dependent decrease; also recorded: decreased invasive migration”. Further, in series [1] (U87-MG cells), the “Dose at which decrease in invasive migration reached statistical significance” value turned out to be 10 µM. Besides, in series [2], the “Concentration up to which PLD1 is not inhibited” value is over 20 µM and the “PLD1 inhibition” value was “no inhibition of PLD1”. The “Effect on U87-MG cell viability” value in series [3] is reported as “no effect”. Moreover, the “Rat CLHEP” value in series [4] was 3.65 L/h/kg. Further, the “Direct action on PLD2 in biochemical assay” value in series [5] is on record as “acted directly on PLD2”. Moreover, the AUC at 6 h in series [6] amounted to 1550 nM·h.
On to `Cc1cccc(N2CNC(=O)C23CCN(C[C@H](C)NC(=O)c2ccc(Br)cc2)CC3)c1` [ML299], for which the “Invasive migration in U87-MG cells” value in series [1] is “dose-dependent decrease; also recorded: decreased invasive migration”. The “Effect on U87-MG cell viability” value in series [3] was “no effect”.

A word on the AUC: it is the area under the concentration-time curve, a measure of exposure.
